Experiment [1] has as its system Plasmodium falciparum. The experiment in a line: Antimalarial activity against Plasmodium falciparum 3D7 infected in human O+ erythrocytes after 72 hrs by SYBR green fluorescence-based method. Type of experiment: functional, cell-based.
Experiment [2] concerns Plasmodium falciparum. The experiment is described as follows: Antimalarial activity against chloroquine-resistant Plasmodium falciparum Dd2 infected in human O+ erythrocytes after 72 hrs by SYBR green fluorescence-based method. Type of experiment: functional, cell-based.
Experiment [3] concerns Plasmodium falciparum. The experiment is described as follows: Antimalarial activity against chloroquine-resistant Plasmodium falciparum FCR-3 ATCC 30932 infected in human RBC after 72 hrs by Geimsa staining based microscopic method. Type of experiment: functional. To be noted: FCR-3/Gambia ATCC 30932, 72 h.
Experiment [4] has as its system Plasmodium falciparum. The experiment in a line: Antimalarial activity against chloroquine-resistant Plasmodium falciparum W2 infected in human RBC after 72 hrs. Type of experiment: functional. The settings on record: W2, 72 h.
[5] abbreviates: Plasmodium falciparum, 3D7, 72 h.
[6] abbreviates: Plasmodium falciparum, Dd2, 72 h.

As a reminder, the IC50 is the concentration that inhibits the measured activity by half. Low readings indicate higher potency, high ones lower potency.

Take `CC(C)(Cl)[C@@H]1CC[C@](C)([C@H]2CC[C@](C)(C#N)[C@H]3CC[C@@](C)(O)[C@H](C#N)[C@@H]32)O1`: the IC50 with Plasmodium falciparum [1] (setting [5]) was 0.0084 µM; in the experiment with Plasmodium falciparum [2] (setting [6]), 0.0046 µM.
In the case of `CC(C)(O)C[C@@H]1[C@@]2(C)CCCC(C)(C)[C@@H]2CC[C@]1(C)C#N`, the values for the IC50 with Plasmodium falciparum [1] (setting [5]) and in the experiment on Plasmodium falciparum [2] (setting [6]) were 0.244 µM and 0.416 µM, respectively.
For `CC(C)[C@H]1CC[C@@](C)(C#N)[C@H]2CC[C@@](C)(C#N)[C@H](O)[C@H]12` the same measures were 1.15 µM and 0.958 µM.
For `CC1=C[C@H]2[C@H](CC1)[C@@](C)(C#N)CC[C@@H]2[C@@]1(C)CC[C@](C#N)(C(C)C)O1` the same measures were 0.175 µM and 0.123 µM.
With `CC1(C)O[C@@](C)([C@H]2CC[C@](C)(C#N)[C@H]3CC[C@@](C)(O)[C@H](C#N)[C@@H]32)CC[C@@H]1Cl`, the midpoint of inhibition in the experiment on Plasmodium falciparum [3], the IC50, lay at 0.0012 µM.
For `CC(C)[C@H]1CC[C@@](C)(C#N)[C@H]2CC[C@@](C)(O)[C@H](C#N)[C@H]12`, the results for the IC50 in the experiment on Plasmodium falciparum [1] (setting [5]) and with Plasmodium falciparum [2] (setting [6]) were 0.0029 µM and 0.031 µM, respectively.
`CC(C)(C#N)C[C@@H]1[C@@]2(C)CCCC(C)(C)[C@@H]2CC[C@]1(C)C#N`: the figures for the IC50 in the experiment on Plasmodium falciparum [1] (setting [5]) and in the experiment with Plasmodium falciparum [2] (setting [6]) were 0.0019 µM and 0.0016 µM, respectively.
With `CC(C)[C@H]1CC[C@](C)(C#N)[C@H]2CC[C@@](C)(C#N)[C@H](O)[C@H]12`, the figures for the IC50 in the experiment on Plasmodium falciparum [1] (setting [5]) and with Plasmodium falciparum [2] were 0.015 µM and 0.017 µM, respectively.
Regarding `CC(C)[C@H]1CC[C@](C)(C#N)[C@H]2CC[C@@](C)(O)[C@H](C#N)[C@H]12`, the IC50 in the experiment on Plasmodium falciparum [1] (setting [5]) is 0.012 µM; in the experiment on Plasmodium falciparum [2] (setting [6]), 0.016 µM.
Consider `CC1=C[C@@]2(O)[C@@H](CC1)[C@@](C)(C#N)CC[C@@H]2[C@@]1(C)CC[C@@H](C(C)(C)C#N)O1`, for which 0.08 µM corresponded to half-maximal inhibition in the experiment on Plasmodium falciparum [3] (IC50).
`C[C@@H]1C[C@@H]2C[C@H](C)[C@H]3CC[C@](C)(C#N)[C@H]4CC[C@@H]([C@@H]2[C@H]34)[C@]1(C)C#N`: the IC50 with Plasmodium falciparum [2] (setting [6]) was found to be 0.0016 µM; with Plasmodium falciparum [4] it was 0.013 µM.
With `CC1=C[C@@H]2[C@@H](C(C)C)CC[C@@](C)(C#N)[C@@H]2CC1` (racemic), the IC50 with Plasmodium falciparum [1] (setting [5]) turned out to be 0.18 µM; in the experiment on Plasmodium falciparum [2] (setting [6]), 0.045 µM.
In the case of `CC1=C[C@@H]2[C@@H](C(C)C)CC[C@](C)(C#N)[C@H]2CC1` (racemic), the IC50 with Plasmodium falciparum [1] (setting [5]) was determined as 0.705 µM; in the experiment with Plasmodium falciparum [2] (setting [6]) it was 0.247 µM.
Regarding `CC(C)[C@H]1CC[C@](C)(C#N)[C@H]2CC[C@@](C)(C#N)[C@H](O)[C@H]12` (racemic), the IC50 was 0.027 µM in the experiment on Plasmodium falciparum [1] and 0.046 µM with Plasmodium falciparum [2].
Consider `C[C@]1(C#N)CC[C@H](CCO)[C@H]2[C@@H](C#N)[C@](C)(O)CC[C@@H]21` (racemic), for which the IC50 turned out to be 0.302 µM with Plasmodium falciparum [1] (setting [5]) and 0.205 µM with Plasmodium falciparum [2] (setting [6]).

The values are drawn from ChEMBL document CHEMBL4002646, “Antimalarial Properties of Simplified Kalihinol Analogues” (ACS Med Chem Lett, 2017).
